For this experiment, the target named is T1, mUSP18 (Mus musculus, UniProt Q9WTV6).
T1 construct: (46-368); His-tag (N); made in house
T1 sequence (Q9WTV6 46-368): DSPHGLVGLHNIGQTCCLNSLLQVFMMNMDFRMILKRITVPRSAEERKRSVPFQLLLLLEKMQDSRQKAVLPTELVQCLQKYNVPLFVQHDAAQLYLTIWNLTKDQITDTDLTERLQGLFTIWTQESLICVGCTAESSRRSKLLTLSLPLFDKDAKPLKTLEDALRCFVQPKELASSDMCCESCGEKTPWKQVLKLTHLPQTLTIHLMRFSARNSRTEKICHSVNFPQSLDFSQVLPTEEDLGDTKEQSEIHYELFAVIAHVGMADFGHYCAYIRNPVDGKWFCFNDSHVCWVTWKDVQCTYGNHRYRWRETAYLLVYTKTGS
The experiment is described as follows: High-throughput screening, ISG15ct-RhoMP, single dose 1.25 µM. To be noted: mUSP18 %inhibition. The class given is biochemical, murine.

[1] abbreviates: carboxylic acid (CA) building block alone, read-out: %inh CA only.
[2] abbreviates: carboxylic acid (CA) with coupling reagents DIC/HOBT, read-out: %inh CA + DIC/HOBT.

Read-outs that look alike come from different tables or passages of the source.

Experimental findings from paper PMC12668310, “High‐Throughput Synthesis and Screening of a Cyanimide Library Identifies Selective Inhibitors of ISG15‐Specific Protease mUSP18” (Angewandte Chemie (International Ed. in English), 2025) are described below.

Regarding `Cn1cc(-c2ccc(C(=O)O)o2)cn1` [CA304], the inhibition at 1.25 µM runs as follows: under setting [1], -4.51%; under setting [2], 6.42%.

As for `O=C(O)c1ccc(F)c(S(=O)(=O)N2CCC2)c1` [CA305], the inhibition at 1.25 µM is -6.19% under setting [1] and 9.63% under setting [2].

For the molecule `CN1C(=O)C[C@@H](C(=O)O)[C@@H]1c1cccnc1` [CA306], the “%inh CA only” value (carboxylic acid (CA) building block alone) came out at 15.74%. Moreover, for the setting “carboxylic acid (CA) with coupling reagents DIC/HOBT”, the “%inh CA + DIC/HOBT” value is -6.80%.

In the case of `Cc1nc(COc2ccccc2C(=O)O)no1` [CA307], the inhibition at 1.25 µM was 9.87% under setting [1] and -3.65% under setting [2].

Turning to `Cc1onc(-c2ccncc2)c1C(=O)O` [CA308], the inhibition at 1.25 µM reads like this: under setting [1], 7.23%; under setting [2], -3.66%.

In the case of `O=C(O)c1cccc(OCCOc2ccccc2Cl)n1` [CA309], the inhibition at 1.25 µM by setting is: under setting [1], 8.2%; under setting [2], -0.34%.

`O=C(O)CC1(n2cnnn2)CCOCC1` [CA310]: the inhibition at 1.25 µM is, setting by setting: under setting [1], 3.18%; under setting [2], -2.42%.

For `O=C(O)c1sc(N2CCCC2)nc1Cl` [CA311], the inhibition at 1.25 µM under setting [1] was found to be 3.86% and the inhibition at 1.25 µM under setting [2] is -3.06%.

Take `COc1ccc(CN2CCC2C(=O)O)cc1` (stereo not drawn) [CA312]: the inhibition at 1.25 µM reads like this: under setting [1], 3.67%; under setting [2], -3.27%.

For the molecule `COCC1CCN(c2ccc(C(=O)O)cc2)C1` (stereo not drawn) [CA313], the inhibition at 1.25 µM under setting [1] came out at 2.9% and the inhibition at 1.25 µM under setting [2] came to 43.3%.

On to `Cc1nn(-c2cccnc2)nc1C(=O)O` [CA314], for which the inhibition at 1.25 µM was 5.77% under setting [1] and -5.31% under setting [2].

Take `Cc1nn(-c2ccccn2)c(C)c1CC(=O)O` [CA315]: the inhibition at 1.25 µM runs as follows: under setting [1], 3.49%; under setting [2], -2.69%.

As for `O=C(O)c1ccnn1C1CCC1` [CA316], the inhibition at 1.25 µM runs as follows: under setting [1], 3.75%; under setting [2], -3.62%.

Turning to `O=C(O)CC1(Cn2cnnn2)CCCCC1` [CA317], the inhibition at 1.25 µM under setting [1] was determined as 3.86% and the inhibition at 1.25 µM under setting [2] is -1.32%.

On to `O=C(O)c1cn(CC2CCOC2)nn1` (stereo not drawn) [CA318], for which the inhibition at 1.25 µM is -2.05% under setting [1] and -0.23% under setting [2].

As for `O=C(O)c1ccn(-c2ccc(C(F)(F)F)cn2)n1` [CA319], the inhibition at 1.25 µM reads like this: under setting [1], -2.14%; under setting [2], -1.07%.

For the molecule `O=C(O)c1sccc1S(=O)(=O)NCc1ccco1` [CA320], the inhibition at 1.25 µM reads like this: under setting [1], -2.92%; under setting [2], 4.46%.

Consider `O=C(O)c1cnn(Cn2cc(Cl)cn2)c1` [CA321], for which the inhibition at 1.25 µM is -3.47% under setting [1] and 1.28% under setting [2].

Take `O=C(O)c1nc(OCC2CC2)ccc1Cl` [CA322]: the inhibition at 1.25 µM runs as follows: under setting [1], -0.54%; under setting [2], -0.53%.

As for `CC(C(=O)O)n1ccc(C2CC2)n1` (stereo not drawn) [CA323], the inhibition at 1.25 µM runs as follows: under setting [1], -0.32%; under setting [2], 0.72%.

Turning to `Cn1cc(S(=O)(=O)N2CCOCC2)cc1C(=O)O` [CA324], the inhibition at 1.25 µM was -1.59% under setting [1] and 1.03% under setting [2].

On to `Cn1nc(CC(=O)O)cc1C1CC1` [CA325], for which the inhibition at 1.25 µM reads like this: under setting [1], -0.57%; under setting [2], 0.73%.

With `COc1ccc(C(=O)O)cc1S(=O)(=O)NCCCN1CCOCC1` [CA326], the inhibition at 1.25 µM is -1.48% under setting [1] and -1.62% under setting [2].

Regarding `Cc1sc(-n2cnnn2)c(C(=O)O)c1C` [CA327], the inhibition at 1.25 µM was -5.75% under setting [1] and 4.6% under setting [2].

With `Cc1noc(-c2ccc(C(=O)O)cc2)n1` [CA328], the inhibition at 1.25 µM is, setting by setting: under setting [1], -3.57%; under setting [2], 6.75%.

Turning to `CCOc1oc(-c2ccco2)nc1C(=O)O` [CA329], the inhibition at 1.25 µM by setting is: under setting [1], 14.4%; under setting [2], 1%.

As to `Cc1ccc(S(=O)(=O)NCCc2ccc(F)cc2)cc1C(=O)O` [CA330], the inhibition at 1.25 µM is 11.3% under setting [1] and -0.35% under setting [2].

As to `Cc1nc(-c2ccco2)ccc1C(=O)O` [CA331], the inhibition at 1.25 µM was 7.93% under setting [1] and -2.82% under setting [2].

Take `O=C(CC1(C(=O)O)CCCC1)N1CCOCC1` [CA332]: the inhibition at 1.25 µM under setting [1] worked out at 2.56% and the inhibition at 1.25 µM under setting [2] is -3.79%.

In the case of `CN(Cc1ccccc1)C(=O)N1CCC(C(=O)O)CC1` [CA333], the inhibition at 1.25 µM reads like this: under setting [1], 1.66%; under setting [2], -0.9%.

Turning to `O=C(O)C1(NS(=O)(=O)C=Cc2ccccc2)CCCC1` [CA334], the inhibition at 1.25 µM is, setting by setting: under setting [1], 0.85%; under setting [2], 6.5%.

For the molecule `O=C(O)C(Cc1ccccc1)N1CCCOC1=O` (stereo not drawn) [CA335], the inhibition at 1.25 µM was 2.86% under setting [1] and -1.08% under setting [2].

`O=C(O)c1ccc(N2CCCS2(=O)=O)cc1` [CA336]: the inhibition at 1.25 µM by setting is: under setting [1], 1.69%; under setting [2], -1.03%.

Turning to `Cc1ccc(CN2C(=O)CCC2C(=O)O)cc1` (stereo not drawn) [CA337], the inhibition at 1.25 µM is -0.24% under setting [1] and -1.16% under setting [2].

For the molecule `O=C(O)c1nc(C2CC2)ncc1Br` [CA338], the inhibition at 1.25 µM by setting is: under setting [1], 7.6%; under setting [2], -0.51%.

For the molecule `CN1C(=O)CCC(C(=O)O)C1c1cccs1` (stereo not drawn) [CA339], the inhibition at 1.25 µM is, setting by setting: under setting [1], 2.79%; under setting [2], -5.82%.

Take `COc1ccc(CC(=O)O)cc1S(=O)(=O)N1CCOCC1` [CA340]: the inhibition at 1.25 µM was 3.33% under setting [1] and -0.36% under setting [2].

As for `O=C(O)c1ccc(-c2ccccn2)s1` [CA341], the inhibition at 1.25 µM runs as follows: under setting [1], 0.41%; under setting [2], 3.46%.

Consider `Cc1noc(C)c1S(=O)(=O)N1CCCC1C(=O)O` (stereo not drawn) [CA342], for which the inhibition at 1.25 µM runs as follows: under setting [1], 2.95%; under setting [2], 1.55%.

For `Cc1cc(C(=O)N(C)c2ccccc2C(=O)O)sc1C` [CA343], the inhibition at 1.25 µM was determined as 13.5% under setting [1] and 8.07% under setting [2].

Consider `O=C(O)c1ccc(N2CCCCCC2)nc1` [CA344], for which the inhibition at 1.25 µM turned out to be 0.4% under setting [1] and 47% under setting [2].

On to `O=C(O)CC1=NN(c2cccc(Cl)c2)C(=O)C1` [CA345], for which the inhibition at 1.25 µM is, setting by setting: under setting [1], 2%; under setting [2], 4.68%.

In the case of `Cc1oc(-c2cccs2)nc1C(=O)O` [CA346], the inhibition at 1.25 µM runs as follows: under setting [1], 8.25%; under setting [2], 12.6%.

As for `O=C(O)c1ccnc(C2CC2)n1` [CA347], the inhibition at 1.25 µM was -0.62% under setting [1] and 1.21% under setting [2].

For the molecule `Cn1ccnc1CN1CCC(C(=O)O)CC1` [CA348], the inhibition at 1.25 µM is, setting by setting: under setting [1], -0.25%; under setting [2], -2.62%.

With `O=C(O)c1cc(C2CC2)no1` [CA349], the inhibition at 1.25 µM is -3.22% under setting [1] and 5.85% under setting [2].

On to `O=C(O)C1CCN(C(=O)c2ccc(Cl)s2)CC1` [CA350], for which the inhibition at 1.25 µM was -0.76% under setting [1] and 4.42% under setting [2].

On to `O=C(O)c1ccc(Oc2cccc(Cl)c2)cn1` [CA351], for which the inhibition at 1.25 µM is, setting by setting: under setting [1], 4.42%; under setting [2], 14.8%.

For `CC1CN(c2ccc(C(=O)O)cn2)CC(C)O1` (stereo not drawn) [CA352], the inhibition at 1.25 µM under setting [1] is -4.1% and the inhibition at 1.25 µM under setting [2] stood at 13.3%.

On to `O=C(O)c1csc(C2CCCCC2)n1` [CA353], for which the inhibition at 1.25 µM runs as follows: under setting [1], 14.4%; under setting [2], 1.26%.

With `O=C(O)c1occc1-c1ccccc1` [CA354], the inhibition at 1.25 µM was 10.9% under setting [1] and -1.55% under setting [2].

As for `O=C(O)c1ccc(Cn2cccn2)s1` [CA355], the inhibition at 1.25 µM under setting [1] was 7.41% and the inhibition at 1.25 µM under setting [2] is -1.93%.

For the molecule `O=C(O)C1CC2CCC1O2` (stereo not drawn) [CA356], the inhibition at 1.25 µM is 3.97% under setting [1] and -4.92% under setting [2].

In the case of `O=C(O)c1ccc(-c2ccccn2)nc1` [CA357], the inhibition at 1.25 µM is 4.64% under setting [1] and -1.59% under setting [2].

As to `O=C(O)C1CC2C=CC1O2` (stereo not drawn) [CA358], the inhibition at 1.25 µM by setting is: under setting [1], 5.65%; under setting [2], -4.55%.

Turning to `O=C(O)C1CC=CCC1C(=O)N1CCOCC1` (stereo not drawn) [CA359], the inhibition at 1.25 µM runs as follows: under setting [1], 4.09%; under setting [2], 0.61%.

For `O=C(O)c1cccc(N2CCOCC2)n1` [CA360], the inhibition at 1.25 µM is 3.09% under setting [1] and -0.29% under setting [2].

For `O=C(O)c1cccc(Cn2cncn2)c1` [CA361], the inhibition at 1.25 µM is, setting by setting: under setting [1], -2.66%; under setting [2], 0.1%.

Turning to `O=C(O)c1cc(-n2cccc2)ccn1` [CA362], the inhibition at 1.25 µM under setting [1] turned out to be 6.21% and the inhibition at 1.25 µM under setting [2] came out at 0.7%.

`O=C(O)c1ccc(Cn2ccnn2)o1` [CA363]: the inhibition at 1.25 µM by setting is: under setting [1], 4.39%; under setting [2], -0.81%.

In the case of `Cc1onc(C(=O)O)c1CN1CCOCC1` [CA364], the inhibition at 1.25 µM worked out at 5.31% under setting [1] and 1.01% under setting [2].

With `O=C(O)C1CCN(S(=O)(=O)N2CCCCC2)CC1` [CA365], the inhibition at 1.25 µM is -1.04% under setting [1] and 2.17% under setting [2].

Turning to `CC1(C(=O)O)CCCCN1C(=O)OCc1ccccc1` (stereo not drawn) [CA366], the inhibition at 1.25 µM runs as follows: under setting [1], 0.85%; under setting [2], 3.29%.

For the molecule `O=C(O)c1sccc1S(=O)(=O)NC1CCCCCC1` [CA367], the inhibition at 1.25 µM was 1.29% under setting [1] and 5.26% under setting [2].

In the case of `CCn1nccc1-c1cc(C(=O)O)no1` [CA368], the inhibition at 1.25 µM by setting is: under setting [1], 0.71%; under setting [2], 2.58%.

On to `O=C(O)c1cccc(C(=O)N2CCCC2)n1` [CA369], for which the inhibition at 1.25 µM came out at 0.72% under setting [1] and 1.39% under setting [2].
